One compound from BindingDB's records for patent US20240308985 (Psy Therapeutics, 2024) can be followed below.

This test concerns the target T1, Fatty-acid amide hydrolase 1 (Homo sapiens, UniProt O00519).
T1 sequence (O00519 whole entry): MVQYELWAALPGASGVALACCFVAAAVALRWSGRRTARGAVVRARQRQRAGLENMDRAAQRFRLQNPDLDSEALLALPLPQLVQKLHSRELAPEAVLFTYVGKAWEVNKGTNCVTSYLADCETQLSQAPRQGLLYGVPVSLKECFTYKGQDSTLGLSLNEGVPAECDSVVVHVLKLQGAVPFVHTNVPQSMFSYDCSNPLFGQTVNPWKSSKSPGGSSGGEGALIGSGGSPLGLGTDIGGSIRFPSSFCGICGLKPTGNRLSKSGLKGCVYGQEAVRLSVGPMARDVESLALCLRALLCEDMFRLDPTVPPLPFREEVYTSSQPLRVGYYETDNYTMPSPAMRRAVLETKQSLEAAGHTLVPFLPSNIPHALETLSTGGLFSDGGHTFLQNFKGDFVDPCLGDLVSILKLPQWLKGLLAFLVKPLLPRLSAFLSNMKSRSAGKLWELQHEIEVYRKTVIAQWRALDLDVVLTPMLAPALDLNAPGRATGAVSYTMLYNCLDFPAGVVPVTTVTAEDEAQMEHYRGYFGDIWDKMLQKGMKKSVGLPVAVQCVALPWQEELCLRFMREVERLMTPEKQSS
Description: Measuring FAAH Inhibition Potency. How it is done: MAGL inhibitor compounds were also counter-screened for FAAH inhibition potency using the following assay. Assessment of FAAH inhibition was performed using Fatty Acid Amide Hydrolase Inhibitor Screening Assay Kit (Cayman Item No. 10005196) following manufacture's instruction with some modifications. The kit utilizes human recombinant FAAH and the fluorescent substrate, AMC Arachidonoyl amide (AAMCA). 5 μL of assay buffer (125 mM Tris, pH 9.0, 1 mM EDTA, i.e. ethylenediaminetetraacetic acid) was added to a 384-well black plate (Corning, 3573). Test compounds and control inhibitor JZL-195 (Cayman Chemical, 13668) were tested in 10-concentration IC50 mode with 3-fold serial dilution at a starting concentration of 100 μM and 10 μM, respectively. 300 nL or 30 nL of test compounds were delivered into a 384-well black plate (Corning, 3573) using a Labcyte Echo, followed by addition of 15 μL of FAAH enzyme (Cayman, 700302) in assay buffer. After a 5-minute pre-incubation at room temperature, 10 μL of AAMCA was added in assay buffer to start the reaction. Final concentration of FAAH enzyme is not specified and AAMCA substrate was used at the 20 uM. […] The reaction was allowed to progress for 60 minutes, while the plate was read on an Envision plate reader at an Ex/Em of 350/460 nm with readings every minute. The data was analyzed in Microsoft Excel, using the slope between 30 and 59 minutes. […]

For the compound `Cc1cc(C2=CC3(C2)CN(C(=O)c2cc(O)ccc2F)C3)n(-c2ccccc2C)n1` [US20240308985, Compound 120], the IC50 – broadly, the midpoint of a concentration-inhibition curve – is over 10 µM.
